Laboratory results taken from patent US20070116820A1, “EDIBLE GEL COMPOSITIONS COMPRISING HIGH-POTENCY SWEETENERS” (THE COCA-COLA COMPANY, priority 2005, published 2007).

Tests used:
[1] = type: physicochemical
Experimental: A solution of rebaudioside A (>97% pure by HPLC ) was prepared in double distilled water (12.5 gm in 50 mL, 25% concentration) by stirring the mixture at 40° C. for 5 minutes. An amorphous form of rebaudioside A was formed by immediately using the clear solution for spray drying with the Lab-Plant spray drier SD-04 instrument (Lab-Plant Ltd., West Yorkshire, U.K.). The solution was fed through the feed pump into the nozzle atomizer which atomized it into a spray of droplets with the help of a constant flow of nitrogen/air. […] This dry powder (11-12 g, H2O 6.74%) was discharged continuously from the drying chamber and was collected in a bottle.

[2] = Rate of dissolution of rebaudioside A polymorph and amorphous forms in H2O at 25° C.; type: physicochemical

Q: With rebaudioside A [Form 4] as the substance, how does the “solubility in water at room temperature” value [1] read?
A: Its value is over 35.0%.

Q: What about the “Rate of dissolution in H2O at 25° C.” value ([2]; per 5 minutes) of the same substance?
A: The value was “High (>35.0%/ %/5 minutes”.

Q: For rebaudioside A [Form 1], which “Rate of dissolution in H2O at 25° C.” value ([2]; per 60 minutes) is on record?
A: The value was “(<0.2%/ %/60 minutes”.

Q: With rebaudioside A [Form 3] as the substance, how does the “Rate of dissolution in H2O at 25° C.” value ([2]; per 5 minutes) read?
A: Its value is “High (>30%/ %/5 minutes”.

Q: For rebaudioside A [Form 2], which “Rate of dissolution in H2O at 25° C.” value ([2]; per 5 minutes) is on record?
A: The value was “(<30%/ %/5 minutes”.
